Experimental findings from ChEMBL document CHEMBL1201862, “PubChem BioAssay data set” (2004) are described below.

Among the test systems are NCI-H460; UACC-257; OVCAR-4; 786-0; SK-OV-3; UO-31; SN12C; OVCAR-8; HCC 2998; Malme-3M; SK-MEL-2; EKVX; SK-MEL-5; HCT-15; SW-620; RXF 393.
What all share (assay): NCI anticancer screen, dose series, 48 h

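Exposure lasted 48 hours, with cells grown in 96-well plates and compounds tested at five concentrations. GI50 = concentration required for 50% inhibition of growth.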 Calls of active or inactive are those of the source. Rule as the data show it: active = GI50 up to about 1.1 µM and inactive = higher.

As to `CCN(CC)CCNC(=O)c1ccccc1NC(=O)C(=O)Nc1ccccc1C(=O)NCCN(CC)CC`, the GI50 with NCI-H460 is 75 µM (inactive); in the assay with UACC-257 it was 18.6 µM (inactive); with OVCAR-4, 64.1 µM (inactive); in the assay on 786-0, 20.6 µM (inactive); with SK-OV-3, > 100 µM (inactive); in the assay on UO-31 it was > 100 µM (inactive). Moreover, the GI50 is 60.5 µM (inactive) in the assay with SN12C; > 100 µM (inactive) with OVCAR-8; 32.5 µM (inactive) in the assay on HCC 2998; 21 µM (inactive) in the assay on Malme-3M; 43 µM (inactive) with SK-MEL-2; > 100 µM (inactive) in the assay on EKVX. In addition, the values for the GI50 in the assay on SK-MEL-5, in the assay with HCT-15 and in the assay with SW-620 were 18.8 µM (inactive), 49.9 µM and 18.5 µM (inactive), respectively.
In the case of `CCN(CC)CCn1c2c3ccccc3ccc2c2oc(=O)c3ccccc3c21`, the GI50 was 13.7 µM (inactive) with NCI-H460; > 100 µM (inactive) with UACC-257; 28.1 µM (inactive) in the assay on OVCAR-4; 22.9 µM (inactive) with 786-0; > 100 µM (inactive) in the assay with SK-OV-3; > 100 µM (inactive) in the assay on UO-31. Further, the GI50 was > 100 µM (inactive) with OVCAR-8; > 100 µM (inactive) in the assay with Malme-3M; > 100 µM (inactive) in the assay on SK-MEL-2; > 100 µM (inactive) with EKVX; above 100 µM with HCT-15; > 100 µM (inactive) in the assay on SW-620.
Turning to `O=C(N/N=C/c1cccc(O)c1O)N/N=C/c1cccc(O)c1O`, the GI50 is 30.1 µM (inactive) with NCI-H460; 19.9 µM (inactive) with UACC-257; 28.2 µM (inactive) in the assay on OVCAR-4; 15.1 µM (inactive) in the assay with 786-0; > 100 µM (inactive) with SK-OV-3; 6.52 µM (inactive) with UO-31. Further, the GI50 in the assay with SN12C was 21.8 µM (inactive); with OVCAR-8, 16.6 µM (inactive); in the assay with RXF 393 it was 19 µM (inactive); in the assay with Malme-3M, 22.4 µM (inactive); with SK-MEL-2, 24 µM (inactive); in the assay on EKVX, 20.5 µM (inactive). In addition, the GI50 with HCT-15 was 8.45 µM; with SW-620, 17.5 µM (inactive).
Turning to `O=c1cc(-c2ccccc2)c2cc3c(=O)ccoc3cc2o1`, the GI50 in the assay with NCI-H460, with UACC-257, in the assay with OVCAR-4, with 786-0, with UO-31 and in the assay with SN12C was > 100 µM (inactive) throughout. The GI50 is > 100 µM (inactive) with OVCAR-8; > 100 µM (inactive) with HCC 2998; 20 µM (inactive) in the assay with RXF 393; 81.5 µM (inactive) in the assay with Malme-3M; > 100 µM (inactive) in the assay with SK-MEL-2; > 100 µM (inactive) with EKVX. Besides, the GI50 in the assay on SK-MEL-5 was 43.7 µM (inactive); in the assay on HCT-15 it was above 100 µM; with SW-620, > 100 µM (inactive).
As for `COS(=O)(=O)OCCC(NC(=O)OCc1ccccc1)C(=O)OCc1ccccc1` (centres undefined), the GI50 in the assay with NCI-H460, with UACC-257, in the assay with OVCAR-4, with 786-0, in the assay on SK-OV-3 and with UO-31 was > 100 µM (inactive) in each case. Moreover, the GI50 was > 100 µM (inactive) in the assay with SN12C; > 100 µM (inactive) in the assay on OVCAR-8; 66.4 µM (inactive) with HCC 2998; > 100 µM (inactive) in the assay with Malme-3M; > 100 µM (inactive) with SK-MEL-2; > 100 µM (inactive) with EKVX. Besides, the values for the GI50 with SK-MEL-5, in the assay on HCT-15 and in the assay with SW-620 were > 100 µM (inactive), above 100 µM and > 100 µM (inactive), respectively.
`N#CCCN(c1ccc(C=O)cc1)S(=O)(=O)c1ccccc1`: the GI50 in the assay with NCI-H460, with UACC-257, in the assay on OVCAR-4, with 786-0, in the assay on SK-OV-3 and with UO-31 was > 100 µM (inactive) in each case. Also, the GI50 in the assay on SN12C, in the assay with OVCAR-8, in the assay on HCC 2998, in the assay on Malme-3M, in the assay with SK-MEL-2 and in the assay with EKVX was > 100 µM (inactive) each time. Besides, the GI50 was > 100 µM (inactive) in the assay with SK-MEL-5, above 100 µM in the assay with HCT-15 and > 100 µM (inactive) with SW-620.
As for `CCOC(=O)C(C(=O)c1ccccc1)=C1NCCN1`, the GI50 in the assay with NCI-H460, in the assay with UACC-257, with OVCAR-4, in the assay with 786-0, in the assay with UO-31 and in the assay on SN12C was > 100 µM (inactive) throughout. Moreover, the GI50 with OVCAR-8, with HCC 2998, in the assay with RXF 393, in the assay with Malme-3M, in the assay on SK-MEL-2 and in the assay on EKVX was > 100 µM (inactive) in each case. The results for the GI50 in the assay on SK-MEL-5, in the assay on HCT-15 and with SW-620 were > 100 µM (inactive), above 100 µM and > 100 µM (inactive), respectively.
For the compound `Cn1c(=O)nc2n(-c3ccc(Cl)cc3)c3ccc(Cl)cc3nc-2c1=O`, the GI50 in the assay on NCI-H460 is 5.98 µM (inactive); with UACC-257, 3.4 µM (inactive); in the assay with 786-0, 12.2 µM (inactive); in the assay on SK-OV-3 it was 88.7 µM (inactive); in the assay on UO-31, 18 µM (inactive); with SN12C, 13.1 µM (inactive). For the same compound, the GI50 was 3.98 µM (inactive) in the assay with OVCAR-8; 7.76 µM (inactive) in the assay on HCC 2998; 2.04 µM (inactive) in the assay with RXF 393; 4.36 µM (inactive) in the assay on SK-MEL-2; 12.9 µM (inactive) in the assay on EKVX; 1.04 µM (active) with SK-MEL-5. Besides, the GI50 was 8.02 µM in the assay on HCT-15 and 4.44 µM (inactive) with SW-620.
As for `COc1ccc(C2Cc3cc(OC)c(OC)c(OC)c3C2=O)cc1` (centres undefined), the GI50 in the assay on NCI-H460 is > 100 µM (inactive); in the assay on UACC-257, > 100 µM (inactive); in the assay on OVCAR-4, > 100 µM (inactive); with 786-0, > 100 µM (inactive); with SK-OV-3, > 100 µM (inactive); with UO-31, 41.8 µM (inactive). For the same compound, the GI50 in the assay with SN12C, with OVCAR-8, with HCC 2998, in the assay with Malme-3M, with SK-MEL-2 and in the assay with EKVX was > 100 µM (inactive) throughout. Moreover, the results for the GI50 with SK-MEL-5, in the assay with HCT-15 and in the assay on SW-620 were 75.3 µM (inactive), above 100 µM and > 100 µM (inactive), respectively.
For `CC(C)(C)C1CCC(=O)C(C(O)CC2CC(=O)N(c3ccccc3)C(=O)C2)C1` (centres undefined), the GI50 in the assay on NCI-H460, with UACC-257, in the assay on OVCAR-4, in the assay with 786-0, in the assay on SK-OV-3 and in the assay with UO-31 was > 100 µM (inactive) throughout. In addition, the GI50 with SN12C, in the assay with OVCAR-8, in the assay with HCC 2998, in the assay on RXF 393, in the assay on Malme-3M and with EKVX was > 100 µM (inactive) each time. Further, the GI50 in the assay with HCT-15 was above 100 µM; in the assay on SW-620 it was > 100 µM (inactive).
With `COc1cc(-c2ccc(NC(=O)SCCC(=O)O)cc2OC)ccc1NC(=O)SCCC(=O)O`, the GI50 in the assay on NCI-H460, with UACC-257, in the assay with OVCAR-4, with 786-0, with UO-31 and in the assay with SN12C was > 100 µM (inactive) each time. Moreover, the GI50 in the assay on OVCAR-8, in the assay on RXF 393, with Malme-3M, in the assay with SK-MEL-2, in the assay on EKVX and in the assay on SK-MEL-5 was > 100 µM (inactive) each time. For the same compound, the GI50 is above 100 µM in the assay on HCT-15 and > 100 µM (inactive) in the assay with SW-620.
In the case of `CCN1N=CSC12C(=O)N(c1ccccc1)C(=O)N2c1ccccc1` (centres undefined), the GI50 with NCI-H460, in the assay on UACC-257, in the assay on OVCAR-4, in the assay with 786-0, in the assay with SK-OV-3 and with UO-31 was > 100 µM (inactive) throughout. In addition, the GI50 in the assay on SN12C, with OVCAR-8, with HCC 2998, in the assay on RXF 393, in the assay with Malme-3M and in the assay with EKVX was > 100 µM (inactive) each time. Moreover, the GI50 with SK-MEL-5 and in the assay with SW-620 was > 100 µM (inactive) throughout.
Turning to `COc1ccc(/C(=N\NC(=O)C(=O)NN)C(c2ccc(OC)cc2)C2(O)C(=O)Nc3ccccc32)cc1` (centres undefined), the GI50 in the assay on NCI-H460 is 60.3 µM (inactive); in the assay with 786-0, 28.1 µM (inactive); in the assay on SK-OV-3, > 100 µM (inactive); with UO-31, 27.6 µM (inactive); in the assay on SN12C, 57.8 µM (inactive); in the assay on OVCAR-8, > 100 µM (inactive). The GI50 is 42.7 µM (inactive) in the assay on Malme-3M; 69.7 µM (inactive) in the assay on SK-MEL-2; > 100 µM (inactive) in the assay on EKVX; 22.4 µM (inactive) with SK-MEL-5; 94.8 µM with HCT-15; > 100 µM (inactive) in the assay on SW-620.
For `COC(=O)/C(=N\NC(N)=O)C(C(=O)C(=O)Nc1ccccc1C(=O)OC)c1nc2ccc(C(=O)c3ccccc3)cc2nc1O` (centres undefined), the GI50 in the assay with NCI-H460, with UACC-257, in the assay on OVCAR-4, with 786-0, with SK-OV-3 and in the assay on UO-31 was > 100 µM (inactive) each time. Moreover, the GI50 with SN12C, with OVCAR-8, with HCC 2998, with Malme-3M, with SK-MEL-2 and with EKVX was > 100 µM (inactive) in each case. The GI50 in the assay on SK-MEL-5 was > 100 µM (inactive); in the assay on HCT-15 it was above 100 µM; with SW-620, > 100 µM (inactive).
